According to PubChem BioAssay (NCI):
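96-well plates; 48 h exposure; 5 concentrations. Endpoints by linear interpolation between flanking doses. Not reached: highest tested concentration assigned. GI50 marks 50% less growth. TGI denotes the concentration required for complete inhibition of growth.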

Experiments:
Assay in all cases: growth of human tumour cells (NCI), 48 h
SR leukemia = tested on: SR leukemia
HL-60(TB) leukemia = tested on: HL-60(TB) leukemia
HT29 colon = tested on: HT29 colon
RXF 393 renal = tested on: RXF 393 renal
MDA-MB-435 = tested on: MDA-MB-435
OVCAR-4 ovarian = tested on: OVCAR-4 ovarian
LOX IMVI melanoma = tested on: LOX IMVI melanoma
UO-31 renal = tested on: UO-31 renal
ACHN renal = tested on: ACHN renal
UACC-62 melanoma = tested on: UACC-62 melanoma
OVCAR-8 ovarian = tested on: OVCAR-8 ovarian
CCRF-CEM leukemia = tested on: CCRF-CEM leukemia
DU-145 prostate = tested on: DU-145 prostate
OVCAR-5 ovarian = tested on: OVCAR-5 ovarian
IGROV1 ovarian = tested on: IGROV1 ovarian
A549 NSCLC = tested on: A549 NSCLC
KM12 colon = tested on: KM12 colon
NCI-H460 lung = tested on: NCI-H460 lung
MDA-MB-231 breast = tested on: MDA-MB-231 breast
TK-10 renal = tested on: TK-10 renal
HOP-92 NSCLC = tested on: HOP-92 NSCLC
A498 renal = tested on: A498 renal
SW-620 colon = tested on: SW-620 colon
NCI-H23 lung = tested on: NCI-H23 lung
786-0 renal = tested on: 786-0 renal
SNB-75 CNS = tested on: SNB-75 CNS
SK-MEL-28 melanoma = tested on: SK-MEL-28 melanoma
UACC-257 melanoma = tested on: UACC-257 melanoma
NCI-H226 lung = tested on: NCI-H226 lung
M14 melanoma = tested on: M14 melanoma
HOP-62 NSCLC = tested on: HOP-62 NSCLC
MOLT-4 leukemia = tested on: MOLT-4 leukemia
PC-3 prostate = tested on: PC-3 prostate
MCF7 breast = tested on: MCF7 breast
NCI/ADR-RES ovarian = tested on: NCI/ADR-RES ovarian
HCT-116 colon = tested on: HCT-116 colon
OVCAR-3 ovarian = tested on: OVCAR-3 ovarian
BT-549 breast = tested on: BT-549 breast
RPMI-8226 leukemia = tested on: RPMI-8226 leukemia
MALME-3M melanoma = tested on: MALME-3M melanoma
SK-MEL-2 melanoma = tested on: SK-MEL-2 melanoma
SF-268 CNS = tested on: SF-268 CNS
SN12C renal = tested on: SN12C renal
HCT-15 colon = tested on: HCT-15 colon
HCC-2998 colon = tested on: HCC-2998 colon
SF-539 CNS = tested on: SF-539 CNS
SF-295 CNS = tested on: SF-295 CNS
SK-MEL-5 melanoma = tested on: SK-MEL-5 melanoma
SNB-19 CNS = tested on: SNB-19 CNS
K-562 leukemia = tested on: K-562 leukemia
HS 578T breast = tested on: HS 578T breast
U251 CNS = tested on: U251 CNS
SK-OV-3 ovarian = tested on: SK-OV-3 ovarian
COLO 205 colon = tested on: COLO 205 colon
NCI-H522 lung = tested on: NCI-H522 lung
EKVX NSCLC = tested on: EKVX NSCLC

SMILES: COc1ccc([As]=[As]c2ccc(OC)c(NCS(=O)(=O)O)c2)cc1NCS(=O)(=O)O (configuration not stated)
- GI50 (SR leukemia): 0.691 µM
- TGI (SR leukemia): 4.88 µM
- GI50 (HL-60(TB) leukemia): 1.51 µM
- TGI (HL-60(TB) leukemia): 11.7 µM
- GI50 (HT29 colon): 2.25 µM
- TGI (HT29 colon): 5.37 µM
- GI50 (RXF 393 renal): 1.41 µM
- TGI (RXF 393 renal): 3.09 µM
- GI50 (MDA-MB-435): 2.03 µM
- TGI (MDA-MB-435): 5.26 µM
- GI50 (OVCAR-4 ovarian): 1.27 µM
- TGI (OVCAR-4 ovarian): 2.6 µM
- GI50 (LOX IMVI melanoma): 1.34 µM
- TGI (LOX IMVI melanoma): 4.49 µM
- GI50 (UO-31 renal): 1.46 µM
- TGI (UO-31 renal): 3.16 µM
- GI50 (ACHN renal): 1.62 µM
- TGI (ACHN renal): 3 µM
- GI50 (UACC-62 melanoma): 1.86 µM
- TGI (UACC-62 melanoma): 4.6 µM
- GI50 (OVCAR-8 ovarian): 2.48 µM
- TGI (OVCAR-8 ovarian): 6.84 µM
- GI50 (CCRF-CEM leukemia): 0.415 µM
- TGI (CCRF-CEM leukemia): 3.14 µM
- GI50 (DU-145 prostate): 3.56 µM
- TGI (DU-145 prostate): 13.8 µM
- GI50 (OVCAR-5 ovarian): 2.02 µM
- TGI (OVCAR-5 ovarian): 4.22 µM
- GI50 (IGROV1 ovarian): 1.19 µM
- TGI (IGROV1 ovarian): 3.4 µM
- GI50 (A549 NSCLC): 3.04 µM
- TGI (A549 NSCLC): 9.96 µM
- GI50 (KM12 colon): 2.98 µM
- TGI (KM12 colon): 10.5 µM
- GI50 (NCI-H460 lung): 3.49 µM
- TGI (NCI-H460 lung): 12.2 µM
- GI50 (MDA-MB-231 breast): 1.56 µM
- TGI (MDA-MB-231 breast): 3.4 µM
- GI50 (TK-10 renal): 1.86 µM
- TGI (TK-10 renal): 3.55 µM
- GI50 (HOP-92 NSCLC): 1.45 µM
- TGI (HOP-92 NSCLC): 3.24 µM
- GI50 (A498 renal): 1.65 µM
- TGI (A498 renal): 3.26 µM
- GI50 (SW-620 colon): 1.17 µM
- TGI (SW-620 colon): 3.04 µM
- GI50 (NCI-H23 lung): 2.57 µM
- TGI (NCI-H23 lung): 8.62 µM
- GI50 (786-0 renal): 1.63 µM
- TGI (786-0 renal): 3.51 µM
- GI50 (SNB-75 CNS): 1.27 µM
- TGI (SNB-75 CNS): 2.8 µM
- GI50 (SK-MEL-28 melanoma): 1.45 µM
- TGI (SK-MEL-28 melanoma): 3 µM
- GI50 (UACC-257 melanoma): 1.62 µM
- TGI (UACC-257 melanoma): 3.37 µM
- GI50 (NCI-H226 lung): 4.07 µM
- TGI (NCI-H226 lung): 17.3 µM
- GI50 (M14 melanoma): 2.15 µM
- TGI (M14 melanoma): 5.69 µM
- GI50 (HOP-62 NSCLC): 2.4 µM
- TGI (HOP-62 NSCLC): 5.9 µM
- GI50 (MOLT-4 leukemia): 1.33 µM
- TGI (MOLT-4 leukemia): 6.18 µM
- GI50 (PC-3 prostate): 3.14 µM
- TGI (PC-3 prostate): 11.7 µM
- GI50 (MCF7 breast): 1.09 µM
- TGI (MCF7 breast): 3.44 µM
- GI50 (NCI/ADR-RES ovarian): 3.49 µM
- TGI (NCI/ADR-RES ovarian): 27.1 µM
- GI50 (HCT-116 colon): 1.7 µM
- TGI (HCT-116 colon): 3.2 µM
- GI50 (OVCAR-3 ovarian): 1.57 µM
- TGI (OVCAR-3 ovarian): 3.06 µM
- GI50 (BT-549 breast): 1.11 µM
- TGI (BT-549 breast): 2.45 µM
- GI50 (RPMI-8226 leukemia): 0.926 µM
- TGI (RPMI-8226 leukemia): 5.93 µM
- GI50 (MALME-3M melanoma): 1.41 µM
- TGI (MALME-3M melanoma): 3.34 µM
- GI50 (SK-MEL-2 melanoma): 1.91 µM
- TGI (SK-MEL-2 melanoma): 4.54 µM
- GI50 (SF-268 CNS): 1.62 µM
- TGI (SF-268 CNS): 4.12 µM
- GI50 (SN12C renal): 1.54 µM
- TGI (SN12C renal): 3.34 µM
- GI50 (HCT-15 colon): 1.47 µM
- TGI (HCT-15 colon): 3.31 µM
- GI50 (HCC-2998 colon): 2.67 µM
- TGI (HCC-2998 colon): 8.8 µM
- GI50 (SF-539 CNS): 1.39 µM
- TGI (SF-539 CNS): 3.43 µM
- GI50 (SF-295 CNS): 3.01 µM
- TGI (SF-295 CNS): 9.48 µM
- GI50 (SK-MEL-5 melanoma): 1.86 µM
- TGI (SK-MEL-5 melanoma): 4.27 µM
- GI50 (SNB-19 CNS): 1.82 µM
- TGI (SNB-19 CNS): 3.68 µM
- GI50 (K-562 leukemia): 0.615 µM
- TGI (K-562 leukemia): 11.1 µM
- GI50 (HS 578T breast): 3.21 µM
- TGI (HS 578T breast): > 100 µM
- GI50 (U251 CNS): 0.768 µM
- TGI (U251 CNS): 2.25 µM
- GI50 (SK-OV-3 ovarian): 10 µM
- TGI (SK-OV-3 ovarian): 21.8 µM
- GI50 (COLO 205 colon): 1.52 µM
- TGI (COLO 205 colon): 3.46 µM
- GI50 (NCI-H522 lung): 0.324 µM
- TGI (NCI-H522 lung): 1.53 µM
- GI50 (EKVX NSCLC): 1.36 µM
- TGI (EKVX NSCLC): 7.26 µM
